Test results from publication PMC3998834 (Biopolymers, 2014).

System: BT-474 cells
Assay: Antiproliferative assay
Type: cell-based
Settings: Homo sapiens, BT-474, 72 h, read-out: Antiproliferative activity IC50, BT-474; SD

## CS(=O)(=O)CCNCc1ccc(-c2ccc3ncnc(Nc4ccc(OCc5cccc(F)c5)c(Cl)c4)c3c2)o1 [lapatinib]
  IC50: 25 ± 4 nM
